Where two headings read alike, the source gives them in different places.
Columns and labels:
P. falciparum 3D7 [1] = experiment: In vitro inhibition of P. falciparum 3D7 (SYBR Green I-based fluorescence assay); assay type: cell-based, Plasmodium falciparum; design: logIC50: unit not given here; conditions: for IC80 / IC50: Plasmodium falciparum; for IC80: concentration used in the 72-h exposure assay; for logIC50: base-10 log-transformed IC50 against P. falciparum 3D7
Experimental: The cultures were maintained in an incubator under specific conditions: 37 °C under 5% CO2 and 5% O2.
The D-sorbitol method (CAS: 50-70-4, Wako, Osaka, Japan) was employed to synchronize parasites, resulting in the attainment of ≥90% ring-stage parasites. These synchronized parasites were then utilized for the experiments within a 2-h window. The assay was performed as follows. First, 50 μL of synchronized parasites with 0.5% parasitemia and 2% hematocrit were added to individual wells of a 96-well plate. Then, 50 μL of the test compounds was introduced to each well. […] Wells containing only test compounds and erythrocytes were included for background correction. […] After the designated incubation time, 100 μL of lysis buffer containing 0.02% (v/v) SYBR Green I was added to each well, the contents of the well were mixed by pipetting, and the plate was incubated in the dark at room temperature for 2 h. […] This assay was repeated four times at each concentration, and the resulting inhibitory values represent the average from three independent trials.
The IC50 or CC50 values were determined from three independent experiments by plotting the logarithmic concentration of the compound against the percent parasite inhibition or cell growth inhibition, respectively. Nonlinear regression analysis was conducted using GraphPad Prism 10 (GraphPad Software, Inc., La Jolla, CA, USA). Comparisons between groups were evaluated using either one-way or two-way ANOVA followed by Tukey's or Fisher's multiple comparisons tests. […] The meaning of each symbol is specified in the corresponding figure legend alongside the name of the employed test.

P. falciparum 3D7 [2] = experiment: 72-h compound exposure assay with wash-unwashed procedure (up to 144 h); assay type: cell-based, Plasmodium falciparum; conditions: for Parasitemia levels at 48 and 72 h compared to untreated controls: compound at IC80; for Cidal versus static effect: compound at IC80, up to 144 h, washed and unwashed groups
Experimental: In the 72-h compound exposure assay with the compound wash-unwashed procedure, parasites at the ring stage with 0.5% parasitemia and 2% hematocrit were employed. For this evaluation, Compounds 31 and 32 were used at concentrations equivalent to their respective IC80 values (Compound 31: 18.08 μM; hill slope 2.10, Compound 32: 11.74 μM; hill slope 2.02). These groups were considered the treated groups, while cultures with only complete medium served as untreated groups. The IC80 was used to allow observations of parasite morphology under incomplete inhibition, the potential emergence of abnormal morphologies, and the state of parasites following compound removal. This experimental setup was repeated three times for each concentration and time point. Thin blood smears were prepared from each treatment group at 1, 24, 48, or 72 h post incubation. In different culture sets, after 72 h of incubation, the medium was exchanged, and the compounds were subjected to three washes using fresh complete medium. Incubation was then continued either in the presence (unwashed group) or absence (washed group) of the test compounds for up to 144 h. Thin blood smears were consecutively prepared from each treatment group at 96, 120, and 144 h. The smears were visualized using a BZ-900 all-in-one microscope (Keyence BioRevo, Tokyo, Japan). Parasitemia levels were calculated by counting the number and determining the ratio of infected erythrocytes relative to the number of uninfected erythrocytes.

[3] = Table S2, P. falciparum 3D7, value used for SAR analysis, read-out: IC50
[4] = chloroquine-sensitive strain 3D7, 72 h incubation, average ± SD, three independent experiments, read-out: IC50 P. falciparum 3D7

COc1cccc(-c2ncc(-c3ccccc3O)o2)c1OC [Compound 31, 2-(2′,3′-dimethoxyphenyl)-5-(2″-hydroxyphenyl)oxazole]
IC80 (P. falciparum 3D7 [1]; P. falciparum 3D7): 18.1 µM
IC50 (P. falciparum 3D7 [1]; [3]): 8.37 µM
IC50 (P. falciparum 3D7 [1]; [4]): 8.37 ± 1.28 µM
logIC50 (P. falciparum 3D7 [1]; Table S2): 0.9226
Parasitemia levels at 48 and 72 h compared to untreated controls (P. falciparum 3D7 [2]): significantly lower parasitemia levels
Cidal versus static effect (P. falciparum 3D7 [2]): possible cidal effect

COc1cccc(-c2ncc(-c3ccccc3OCc3ccccc3)o2)c1OC [Compound 32, 2-(2′,3′-dimethoxyphenyl)-5-(2″-benzyloxyphenyl)oxazole]
IC80 (P. falciparum 3D7 [1]; P. falciparum 3D7): 11.7 µM
IC50 (P. falciparum 3D7 [1]; [3]): 6.25 µM
IC50 (P. falciparum 3D7 [1]; [4]): 6.25 ± 1.39 µM
logIC50 (P. falciparum 3D7 [1]; Table S2): 0.7961
Parasitemia levels at 48 and 72 h compared to untreated controls (P. falciparum 3D7 [2]): significantly lower parasitemia levels
Cidal versus static effect (P. falciparum 3D7 [2]): predominantly static effect

Reference: article PMC11067372, “Evaluation of the antiplasmodial efficacy of synthetic 2,5-diphenyloxazole analogs of compounds naturally derived from Oxytropis lanata” (International Journal for Parasitology: Drugs and Drug …, 2024)
